Measured values taken from patent US10668168B2, “Method for removing weakly bound functional moieties from cell targeting conjugates” (priority 2015, dated 2020).

Test system: NBD-4Py-Lx-trastuzumab conjugate
Experiment: Stripping efficiency of S- and N-donors: released NBD label from trastuzumab conjugate
Type: physicochemical
Details: agent 10 mM final, 37 °C, 30 minutes stripping
Protocol: The percentage of released NBD label (excitation and emission wavelength of 485 nm and 535 nm, respectively) was determined spectrophotometrically. The conjugation mixture was precipitated with 2 volume equivalents acetonitrile followed by centrifugation of the formed suspension (5 minutes, 14K rpm). By measuring the fluorescence of the supernatant, the percentage of released NBD label was determined.
NBD-4Py-Lx-Cl (133 microliters, 5 mM in 20 mM NaCl, 20 equiv.) was added to a solution of trastuzumab, used in its commercial formulation, (238 microliters, 21 mg/ml) and HEPES buffer (12.3 microliters, pH 7.47, 20 mM final concentration). The mixture was placed in a THERMOMIXER® at 37° C. for 4 hours, followed by purification using a prewashed PD10 column which was eluted with 0.9% NaCl. The purified conjugate was incubated with PBS or the S and N-donors as listed above (10 mM final concentration) in a THERMOMIXER® at 37° C. for 30 minutes. With size exclusion chromatography conjugation was clearly observed. Furthermore no aggregation was observed. The NBD/mAb ratio of all the conjugates were between 4.0 and 4.2.
The percentage of the released NBD label was determined as described in Example B.

Compared with `N[C@@H](Cc1c[nH]cn1)C(=O)O` [Histidine], `N[C@@H](CS)C(=O)O` [L-cysteine] is higher in “Released label (%)” value: 5.9% for the first, 36.4% for the second.

Compared with `N#C[S-].[K+]` [KSCN, potassium thiocyanate], `CSCC[C@H](NC(C)=O)C(=O)O` [N-acetyl-1-methionine] is lower in “Released label (%)” value: 35.9% for the first, 12.2% for the second.

With `O=S([O-])([O-])=S.[Na+].[Na+]` [NaSTS, sodium thiosulfate] the “Released label (%)” value was 52.4%.
